Laboratory results from PubChem BioAssay AID179 (DTP/NCI, 2004).
Calls of active or inactive are those of the source.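 The calls were made as follows: active = compounds giving half or more protection of infected cells from virus-caused growth loss, again on retest; inactive = the rest.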

System: CEM cells HIV-1 protection, formazan growth assay
Assay: NCI AIDS Antiviral Assay
Conditions: for IC50: measured here: growth of uninfected CEM cells
In short: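 Soluble formazan readout of cell growth; CEM cells ± HIV-1; 5 drug concs. ≥50% protection → retest; ≥50% again = moderately active; reproducible 100% = confirmed active.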

Compound | EC50 [µM] | IC50 [µM] | outcome
COc1ccc(C2=NNc3n[nH]c(=S)n3N2)cc1OC | > 64.6 | > 64.6 | –
COC(=O)c1[nH]c(=O)c(C#N)c(C(=O)OC)c1C(=O)/C=C/c1ccccc1 | > 51.3 | > 51.3 | –
O=C(Cn1c(-c2ccccc2)cc2ccccc21)N1CCCC1 | > 200 | 126 | –
O=C1CC2[C@@H](N3CCCC3)CCC(N1Cc1ccccc1)C2(O)O (some centres not stated) | > 200 | > 200 | –
CS(=O)(=O)c1ccc(SSc2ccc(S(C)(=O)=O)cc2[N+](=O)[O-])c([N+](=O)[O-])c1 | – | – | inactive
CCOC(=O)c1c(NC(=S)Nc2ccccc2)sc2c1CCN(C)C2 | > 200 | > 200 | –
CC1(C)Cc2c(oc3ncnc(N)c23)CS1 | > 288 | > 288 | –
CCOc1ncn(-c2ccc(NC(=S)NC34CC5CC(CC(C5)C3)C4)cc2)n1 | 12 | 67.6 | –
C=CCC1(c2ccc(OC)cc2)C=CC(=O)CC1 (configuration not stated) | > 282 | 79.4 | –
COC(=O)C(=O)C(C(=O)C(=O)Nc1ccc(C)cc1C)c1nc2ccc(Cl)cc2[nH]c1=O (configuration not stated) | > 57.5 | 47.9 | –
O=C1C2C3CC4C5C3C1C5C1(SCCS1)C42 (configuration not stated) | – | – | inactive
COc1ccc(/C=C(/C#N)C(N)=O)c(OC)c1 | > 200 | 60.3 | –
CC1OC(OC2C(O[C@@H]3C[C@@H]4CC[C@@H]5[C@H](CC[C@]6(C)[C@@H]7[C@H](C[C@@H]56)O[C@]5(CC[C@@H](C)CO5)[C@H]7C)[C@@]4(C)C[C@H]3O)OC(CO)C(OC3OC(CO)C(O)C(O)C3O)C2O)C(O)C(O)C1O (some centres not stated) | > 10 | 1.82 | –
CCCCCCCCCCCSSCCCCCCCCCCC | > 200 | > 200 | –
Cc1c(N2C(=O)/C(=C/c3ccc(N(CCC#N)CCC#N)cc3)N=C2c2ccccc2)c(=O)n(-c2ccccc2)n1C | > 200 | 186 | –
CCOC(=O)c1cc(/C=C/C(C)=C/C(=O)OC)oc1C | > 67.6 | > 67.6 | –
O=C1C=CC(=O)c2c1ccc1c3ccccc3n(Cc3cccc([N+](=O)[O-])c3)c21 | > 200 | 1.35 | –
CCOP(=O)(OCC)/C(C#N)=C\c1ccccc1 | > 355 | > 355 | –
O/N=C1/C(=C/c2ccc(OCc3ccccc3)cc2)CCCC1C(NO)c1ccc(OCc2ccccc2)cc1 (configuration not stated) | > 7.08 | > 7.08 | –
COC(=O)c1cc(O)ccc1NC(=O)c1ccc(O)cc1 | > 912 | 363 | –
CNC(=O)OCc1cnc([N+](=O)[O-])n1C | > 200 | > 200 | –

Compound | EC50 [µM] | IC50 [µM] | outcome
O=C(CSc1c2ccccc2nc2ccccc12)Nc1ccccc1-c1ccccc1NC(=O)CSc1c2ccccc2nc2ccccc12 | > 1.91 | > 1.91 | –
C=CCOc1ccc2c(C)cc(=O)oc2c1C | > 112 | 102 | –
COC(=O)C1=CCC(n2cnc3c(Cl)nc(N)nc32)CC1 (configuration not stated) | > 115 | 47.9 | –
O=C(OCc1ccccc1)[C@H]1O[C@@H]1C(=O)OCc1ccccc1 | > 200 | 25.7 | –
COC(=O)c1cc(C#N)[nH]c1-c1cc(Br)cs1 | > 200 | 11.7 | –
Cc1n[n+](Cc2ccccc2)c2sc(N)nn12 | > 200 | 40.7 | –
C[N+]12CCCCC1CC(=O)CC2 (configuration not stated) | > 851 | > 851 | –
CC(=O)N1c2ccccc2C(C)C1c1[nH]c2ccccc2c1C (configuration not stated) | > 200 | 30.2 | –
C=C(C(=O)OC)c1cc2ccccc2n1S(=O)(=O)c1ccccc1 | > 20 | 3.02 | –
Cn1c(=O)cc(C=Nc2ccc(S(N)(=O)=O)cc2)c2ccccc21 | > 200 | 1.51 | –
CCOC(=O)c1sc2nc(CN3CCOCC3)[nH]c(=O)c2c1C | > 77.6 | > 77.6 | –
O=C(O)c1cc(C(=O)O)c(C(=O)O)c(C(=O)O)c1C(=O)O | – | – | inactive
COC(=O)/C=C/c1cc(OC)c2c(c1)[C@H](C(=O)OC)[C@@H](c1ccc(O)c(OC)c1)O2 | > 20 | 1.02 | –
CC(=O)ON1C(=O)c2cccc3cccc(c23)C1=O | > 200 | 18.6 | –
O=C(OCc1ccccc1)N1C[C@@H](OCc2ccccc2)[C@@H](OCc2ccccc2)[C@H]1CO | > 200 | 10.7 | –
CC(=O)Oc1cc(OC(C)=O)c(CC=C(C)C)c(-c2cc3ccc(OC(C)=O)c(C/C=C(\C)CCC=C(C)C)c3o2)c1 | > 4.57 | > 4.57 | –
CN(C)CCC(/C=C/c1ccccc1)=N\Nc1c(F)c(F)c(F)c(F)c1F | – | – | inactive
CCOC(=O)c1[nH]cnc1/N=N/N(C)N | > 200 | 21.4 | –
CC(=O)NC(CCCCN(Cc1ccccc1)C(=O)N(C)N=O)C(=O)NCc1ccccc1 (configuration not stated) | > 110 | 93.3 | –
O=[N+]([O-])c1cc(Cl)ccc1Sc1ccccc1 | – | – | inactive
CC1COB(c2ccccc2)OCC(C)N1CNC(=O)C1=C(O)C2(O)C(O)=C3C(=O)C4C(O)=CC=CC4C(C)(O)C3CC2C(N(C)C)C1=O (configuration not stated) | 15.1 | 19.5 | –

Compound | EC50 [µM] | IC50 [µM] | outcome
CC(=O)OCC12CC(OC(C)=O)C(C)=CC1O[C@@H]1C(O)[C@@H](O)[C@@]2(C)[C@@]12CO2 (some centres not stated) | > 66.1 | 0.0282 | –
COC(=O)c1cc2c(cc1CC(Cc1ccc3c(c1)CCC3)C(=O)OC)CCC2 (configuration not stated) | > 200 | 126 | –
CC1=NN2C(c3ccc(Cl)cc3)=CSC2=NC(C)(C)C1 | > 162 | 93.3 | –
O=C1C(=Cc2ccc([N+](=O)[O-])o2)C(=O)N(CCc2ccccc2)S(=O)(=O)N1CCc1ccccc1 | > 5.25 | > 5.25 | –
COc1cc2c(cc1OC)C1(c3ccc(Cl)cc3)ON=C(c3ccccc3)N1CS2 (configuration not stated) | > 6.17 | > 6.17 | –
CS(=O)(=O)Nc1nc2ccccc2c(=O)o1 | > 200 | > 200 | –
C/C=C(\C)C(=O)OCC12C(OC(C)=O)CC(C)C(C)(CCC3=CC(=O)OC3)[C@H]1CCCC21CO1 (some centres not stated) | > 75.9 | > 75.9 | –
CCc1cccc(CC)c1NC(=O)CC1SC(N)=NC1=O (configuration not stated) | > 427 | > 427 | –
CCOc1ccccc1N1C(=O)C(=O)C(c2nc3ccccc3o2)/C(=N\N)C1=O (configuration not stated) | – | – | inactive
O=C(NNc1nc(-c2ccccc2)cs1)Nc1ccccc1 | > 200 | 40.7 | –
CC[C@H](OCc1ccccc1)/C(C)=C/C[C@@H](C)CO | > 27.5 | > 27.5 | –
Cc1ccc2nc(-c3ccc(C(C)(C)C)cc3)oc(=O)c2c1 | > 200 | 23.4 | –
CC(C)c1nc2cc(C(F)(F)F)ccc2[nH]c1=O | > 200 | 120 | –
Cc1ccc(/C=C2\CCCCC2=O)cc1 | – | – | inactive
Nc1nc(C=O)nc2c1ncn2C1OC(CO)C(O)C1O (configuration not stated) | > 200 | 30.9 | –
CCCCNC(=S)OCCC(C)CCCC(C)C (configuration not stated) | – | – | inactive
COc1ccc(N2C(=O)c3c(c4[nH]c5ccc(OC)cc5c4c4ccc(C(C)(C)C)cc34)C2=O)cc1 | > 11 | > 11 | –
CC(C)c1cccc2sc(NC(=O)C(=O)C(C#N)c3cccc4ccccc34)nc12 (configuration not stated) | – | – | inactive
O=C(O)c1cc(=O)c2c(OCC(O)COc3cccc4oc(C(=O)O)cc(=O)c34)cccc2o1 | > 200 | > 200 | –
COC(=O)NC(Cc1ccccc1)NC(C)=O (configuration not stated) | > 200 | > 200 | –
Oc1ccccc1-c1nc2sc(-c3ccccc3O)nc2s1 | > 200 | 132 | –
